For 27 compounds, activity coefficient results are on record in the NIST ThermoML archive (doi:10.1016/j.jct.2011.11.025).

This data set is described as follows: activity coefficient (dimensionless); of the first substance listed, at infinite dilution; xn = mol fraction of the nth substance listed. The note with it: Liquid, Chromatography, x1 = 0.

Numbers after ± are expanded uncertainties.

For the compound `Cc1ccccc1C` [1,2-dimethylbenzene] + CCCCCCn1cc[n+](C)c1.N#C[B-](C#N)(C#N)C#N, the activity coefficient is 1.19 ± 0.04 (318.15 K); 1.22 ± 0.04 (328.15 K); 1.24 ± 0.04 (338.15 K); 1.26 ± 0.04 (348.15 K); 1.28 ± 0.04 (358.15 K); 1.31 ± 0.05 (368.15 K).

Turning to `Cc1cccc(C)c1` [1,3-dimethylbenzene] + CCCCCCn1cc[n+](C)c1.N#C[B-](C#N)(C#N)C#N, the activity coefficient was 1.36 ± 0.05 (318.15 K); 1.39 ± 0.05 (328.15 K); 1.42 ± 0.05 (338.15 K); 1.44 ± 0.05 (348.15 K); 1.47 ± 0.06 (358.15 K); 1.5 ± 0.06 (368.15 K).

`Cc1ccc(C)cc1` [1,4-dimethylbenzene] + CCCCCCn1cc[n+](C)c1.N#C[B-](C#N)(C#N)C#N: the activity coefficient runs as follows: (318.15 K) 1.33 ± 0.05; (328.15 K) 1.36 ± 0.05; (338.15 K) 1.39 ± 0.05; (348.15 K) 1.42 ± 0.05; (358.15 K) 1.44 ± 0.05; (368.15 K) 1.47 ± 0.06.

Take `C1COCCO1` [1,4-dioxane] + CCCCCCn1cc[n+](C)c1.N#C[B-](C#N)(C#N)C#N: the activity coefficient is, setting by setting: (318.15 K) 0.362 ± 0.035; (328.15 K) 0.381 ± 0.034; (338.15 K) 0.401 ± 0.034; (348.15 K) 0.419 ± 0.034; (358.15 K) 0.435 ± 0.033; (368.15 K) 0.454 ± 0.033.

As to `C=CCCCCCCCC` [1-decene] + CCCCCCn1cc[n+](C)c1.N#C[B-](C#N)(C#N)C#N, the activity coefficient (318.15 K) was determined as 21.5 ± 1; the activity coefficient (328.15 K) stood at 20.5 ± 0.9; the activity coefficient (338.15 K) came out at 19.3 ± 0.9; the activity coefficient (348.15 K) worked out at 18.5 ± 0.9; the activity coefficient (358.15 K) came out at 17.6 ± 0.8; the activity coefficient (368.15 K) stood at 16.9 ± 0.8.

Regarding `C=CCCCCC` [1-heptene] + CCCCCCn1cc[n+](C)c1.N#C[B-](C#N)(C#N)C#N, the activity coefficient by setting is: (318.15 K) 8.39 ± 0.38; (328.15 K) 8.06 ± 0.37; (338.15 K) 7.79 ± 0.36; (348.15 K) 7.59 ± 0.35; (358.15 K) 7.37 ± 0.34; (368.15 K) 7.24 ± 0.33.

As for `C#CCCCCC` [1-heptyne] + CCCCCCn1cc[n+](C)c1.N#C[B-](C#N)(C#N)C#N, the activity coefficient is, setting by setting: (318.15 K) 2.92 ± 0.13; (328.15 K) 2.93 ± 0.13; (338.15 K) 2.94 ± 0.13; (348.15 K) 2.98 ± 0.14; (358.15 K) 2.99 ± 0.14; (368.15 K) 3.02 ± 0.14.

As for `C#CCCCC` [1-hexyne] + CCCCCCn1cc[n+](C)c1.N#C[B-](C#N)(C#N)C#N, the activity coefficient amounted to 2.17 ± 0.1 (318.15 K); 2.19 ± 0.1 (328.15 K); 2.2 ± 0.1 (338.15 K); 2.24 ± 0.1 (348.15 K); 2.26 ± 0.1 (358.15 K); 2.3 ± 0.1 (368.15 K).

Consider `CCC[N+](=O)[O-]` [1-nitropropane] + CCCCCCn1cc[n+](C)c1.N#C[B-](C#N)(C#N)C#N, for which the activity coefficient is, setting by setting: (328.15 K) 0.497 ± 0.033; (338.15 K) 0.503 ± 0.032; (348.15 K) 0.508 ± 0.032; (358.15 K) 0.511 ± 0.032; (368.15 K) 0.518 ± 0.032.

With `C#CCCCCCC` [1-octyne] + CCCCCCn1cc[n+](C)c1.N#C[B-](C#N)(C#N)C#N, the activity coefficient was 3.99 ± 0.18 (318.15 K); 3.97 ± 0.18 (328.15 K); 3.96 ± 0.18 (338.15 K); 3.98 ± 0.18 (348.15 K); 3.97 ± 0.18 (358.15 K); 3.99 ± 0.18 (368.15 K).

As for `CC(C)CC(C)(C)C` [2,2,4-trimethylpentane] + CCCCCCn1cc[n+](C)c1.N#C[B-](C#N)(C#N)C#N, the activity coefficient (318.15 K) amounted to 18.8 ± 0.9; the activity coefficient (328.15 K) came out at 17.6 ± 0.8; the activity coefficient (338.15 K) is 16.5 ± 0.8; the activity coefficient (348.15 K) turned out to be 15.7 ± 0.7; the activity coefficient (358.15 K) worked out at 15 ± 0.7; the activity coefficient (368.15 K) was 14.3 ± 0.7.

On to `CCC(C)(C)C` [2,2-dimethylbutane] + CCCCCCn1cc[n+](C)c1.N#C[B-](C#N)(C#N)C#N, for which the activity coefficient was determined as 10.5 ± 0.5 (318.15 K); 9.96 ± 0.46 (328.15 K); 9.52 ± 0.44 (338.15 K); 9.24 ± 0.42 (348.15 K); 8.92 ± 0.41 (358.15 K); 8.69 ± 0.4 (368.15 K).

On to `CCOC(C)(C)C` [2-ethoxy-2-methylpropane] + CCCCCCn1cc[n+](C)c1.N#C[B-](C#N)(C#N)C#N, for which the activity coefficient by setting is: (318.15 K) 3.51 ± 0.16; (328.15 K) 3.53 ± 0.16; (338.15 K) 3.53 ± 0.16; (348.15 K) 3.58 ± 0.16; (358.15 K) 3.61 ± 0.16; (368.15 K) 3.66 ± 0.17.

`CCC(C)(C)OC` [2-methoxy-2-methylbutane] + CCCCCCn1cc[n+](C)c1.N#C[B-](C#N)(C#N)C#N: the activity coefficient worked out at 2.19 ± 0.1 (318.15 K); 2.24 ± 0.1 (328.15 K); 2.27 ± 0.1 (338.15 K); 2.33 ± 0.11 (348.15 K); 2.36 ± 0.11 (358.15 K); 2.42 ± 0.11 (368.15 K).

As for `COC(C)(C)C` [2-methoxy-2-methylpropane] + CCCCCCn1cc[n+](C)c1.N#C[B-](C#N)(C#N)C#N, the activity coefficient (318.15 K) amounted to 1.62 ± 0.07; the activity coefficient (328.15 K) was 1.66 ± 0.07; the activity coefficient (338.15 K) is 1.71 ± 0.07; the activity coefficient (348.15 K) came to 1.76 ± 0.07; the activity coefficient (358.15 K) was found to be 1.81 ± 0.08; the activity coefficient (368.15 K) amounted to 1.87 ± 0.08.

For the compound `CC(C)CO` [2-methyl-1-propanol] + CCCCCCn1cc[n+](C)c1.N#C[B-](C#N)(C#N)C#N, the activity coefficient (318.15 K) was 1.44 ± 0.05; the activity coefficient (328.15 K) is 1.31 ± 0.05; the activity coefficient (338.15 K) came to 1.2 ± 0.1; the activity coefficient (348.15 K) was determined as 1.11 ± 0.03; the activity coefficient (358.15 K) amounted to 1.04 ± 0.03; the activity coefficient (368.15 K) turned out to be 0.977 ± 0.025.

Turning to `CC(C)(C)O` [2-methylpropan-2-ol] + CCCCCCn1cc[n+](C)c1.N#C[B-](C#N)(C#N)C#N, the activity coefficient by setting is: (318.15 K) 1.2 ± 0.04; (328.15 K) 1.11 ± 0.03; (338.15 K) 1.04 ± 0.03; (348.15 K) 0.988 ± 0.025; (358.15 K) 0.951 ± 0.026; (368.15 K) 0.914 ± 0.026.

For `CCC(C)CC` [3-methylpentane] + CCCCCCn1cc[n+](C)c1.N#C[B-](C#N)(C#N)C#N, the activity coefficient reads like this: (318.15 K) 10.5 ± 0.5; (328.15 K) 9.96 ± 0.46; (338.15 K) 9.5 ± 0.44; (348.15 K) 9.15 ± 0.42; (358.15 K) 8.81 ± 0.4; (368.15 K) 8.6 ± 0.39.

Regarding `C=C(C)c1ccccc1` [(1-methylethenyl)benzene] + CCCCCCn1cc[n+](C)c1.N#C[B-](C#N)(C#N)C#N, the activity coefficient is, setting by setting: (328.15 K) 1.2 ± 0.04; (338.15 K) 1.26 ± 0.04; (348.15 K) 1.3 ± 0.04; (358.15 K) 1.34 ± 0.05; (368.15 K) 1.38 ± 0.05.

For `CC(=O)O` [acetic acid] + CCCCCCn1cc[n+](C)c1.N#C[B-](C#N)(C#N)C#N, the activity coefficient reads like this: (328.15 K) 0.285 ± 0.036; (338.15 K) 0.298 ± 0.036; (348.15 K) 0.311 ± 0.035; (358.15 K) 0.323 ± 0.035; (368.15 K) 0.335 ± 0.035.

For `CC(C)=O` [acetone] + CCCCCCn1cc[n+](C)c1.N#C[B-](C#N)(C#N)C#N, the activity coefficient is 0.335 ± 0.035 (318.15 K); 0.344 ± 0.035 (328.15 K); 0.354 ± 0.035 (338.15 K); 0.363 ± 0.035 (348.15 K); 0.372 ± 0.034 (358.15 K); 0.381 ± 0.034 (368.15 K).

As for `CC#N` [acetonitrile] + CCCCCCn1cc[n+](C)c1.N#C[B-](C#N)(C#N)C#N, the activity coefficient is, setting by setting: (318.15 K) 0.387 ± 0.034; (328.15 K) 0.391 ± 0.034; (338.15 K) 0.394 ± 0.034; (348.15 K) 0.396 ± 0.034; (358.15 K) 0.398 ± 0.034; (368.15 K) 0.4 ± 0.034.

For the compound `c1ccccc1` [benzene] + CCCCCCn1cc[n+](C)c1.N#C[B-](C#N)(C#N)C#N, the activity coefficient (318.15 K) was 0.733 ± 0.029; the activity coefficient (328.15 K) was 0.743 ± 0.029; the activity coefficient (338.15 K) is 0.758 ± 0.029; the activity coefficient (348.15 K) is 0.773 ± 0.028; the activity coefficient (358.15 K) was 0.783 ± 0.028; the activity coefficient (368.15 K) amounted to 0.8 ± 0.028.

As to `CCCCO` [butan-1-ol] + CCCCCCn1cc[n+](C)c1.N#C[B-](C#N)(C#N)C#N, the activity coefficient runs as follows: (318.15 K) 1.43 ± 0.05; (328.15 K) 1.32 ± 0.05; (338.15 K) 1.22 ± 0.04; (348.15 K) 1.14 ± 0.03; (358.15 K) 1.07 ± 0.03; (368.15 K) 1.01 ± 0.03.

Regarding `CCC(C)O` (centres undefined) [butan-2-ol] + CCCCCCn1cc[n+](C)c1.N#C[B-](C#N)(C#N)C#N, the activity coefficient is, setting by setting: (318.15 K) 1.27 ± 0.04; (328.15 K) 1.17 ± 0.04; (338.15 K) 1.1 ± 0.1; (348.15 K) 1.03 ± 0.03; (358.15 K) 0.977 ± 0.025; (368.15 K) 0.938 ± 0.026.

Regarding `CCCC=O` [butanal] + CCCCCCn1cc[n+](C)c1.N#C[B-](C#N)(C#N)C#N, the activity coefficient was determined as 0.512 ± 0.032 (318.15 K); 0.523 ± 0.032 (328.15 K); 0.539 ± 0.032 (338.15 K); 0.554 ± 0.032 (348.15 K); 0.564 ± 0.032 (358.15 K); 0.579 ± 0.031 (368.15 K).

For `C1CCCCCC1` [cycloheptane] + CCCCCCn1cc[n+](C)c1.N#C[B-](C#N)(C#N)C#N, the activity coefficient runs as follows: (318.15 K) 7.96 ± 0.37; (328.15 K) 7.46 ± 0.34; (338.15 K) 7.07 ± 0.32; (348.15 K) 6.76 ± 0.31; (358.15 K) 6.45 ± 0.3; (368.15 K) 6.21 ± 0.28.
